Test results reported in US6461997B1, “Triazole sulfones having herbicidal activity” (Monsanto Technology LLC, priority 1999, dated 2002).

How the values were obtained:
[1] = system: VERPE (creeping speedwell); assay: Pre-emergence herbicidal activity, cool season; format: in vivo, Veronica persicaria; conditions: lowest tested rate with 80% or greater inhibition; rates 300, 100, 30, 10 g/ha; about 14 days
Summary of the method: (§1)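 Seeds sown in sterilised fertilised topsoil received surface-applied compound in 50:50 acetone/water, typically at 300, 100, 30 and 10 g/ha, then greenhouse-grown at 30/21° C (warm-season species) or 18/13° C (cool-season species). Percent inhibition versus untreated plants was scored at about 14 days, giving GR80; an asterisk marks activity short of 80% at the top rate.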

[2] = system: STEME (common chickweed); assay: Pre-emergence herbicidal activity, cool season; format: in vivo, Stellaria media; conditions: lowest tested rate with 80% or greater inhibition; rates 300, 100, 30, 10 g/ha; about 14 days
Summary of the method: as §1

[3] = system: SASKR (russian thistle); assay: Pre-emergence herbicidal activity, cool season; format: in vivo, Salsola kali; conditions: lowest tested rate with 80% or greater inhibition; rates 300, 100, 30, 10 g/ha; about 14 days
Summary of the method: as §1

[4] = system: POROL (common purslane); assay: Pre-emergence herbicidal activity, warm season; format: in vivo, Portulaca oleracea; conditions: GR80 = lowest tested rate (300, 100, 30, 10 g/ha) with 80% or greater inhibition; approx. 14 days after treating; 30/21° C.
Summary of the method: as §1

[5] = system: LAMPU (purple deadnettle); assay: Pre-emergence herbicidal activity, cool season; format: in vivo, Lamium purpureum; conditions: lowest tested rate with 80% or greater inhibition; rates 300, 100, 30, 10 g/ha; about 14 days
Summary of the method: as §1

[6] = system: BRAPP (broadleaf signalgrass); assay: Pre-emergence herbicidal activity, warm season; format: in vivo, Brachiaria platyphylla; conditions: GR80 = lowest tested rate (300, 100, 30, 10 g/ha) with 80% or greater inhibition; approx. 14 days after treating; 30/21° C.
Summary of the method: as §1

[7] = system: CHEAL (common lambsquarters); assay: Pre-emergence herbicidal activity, warm season; format: in vivo, Chenopodium album; conditions: GR80 = lowest tested rate (300, 100, 30, 10 g/ha) with 80% or greater inhibition; approx. 14 days after treating; 30/21° C.
Summary of the method: as §1

[8] = system: SINAR (wild mustard); assay: Pre-emergence herbicidal activity, cool season; format: in vivo, Sinapis arvensis; conditions: lowest tested rate with 80% or greater inhibition; rates 300, 100, 30, 10 g/ha; about 14 days
Summary of the method: as §1

[9] = system: CONAR (field bindweed); assay: Pre-emergence herbicidal activity, warm season; format: in vivo, Convolvulus arvensis; conditions: GR80 = lowest tested rate (300, 100, 30, 10 g/ha) with 80% or greater inhibition; approx. 14 days after treating; 30/21° C.
Experimental: (§2) Tables 5 to 8 summarize results of tests conducted as described below to determine the pre-emergence herbicidal activity, in the form of a GR80 value, of illustrative compounds of this invention. […] Compounds of the invention were typically applied at rates of 300, 100, 30, and 10 g/ha. Where herbicidal activity was evident but 80% inhibition was not achieved at the highest rate tested, an asterisk (*) is shown in the following tables.
(§3) The pre-emergence tests were conducted by the following procedure. Topsoil was sieved to pass through a 1.27 cm screen. Fertilizer was added to the topsoil and the mixture was then sterilized by heating. The topsoil mixture was placed in a pot and compacted to a depth of 1.0 to 1.25 cm from the top of the pot. Seeds of each of several monocotyledonous and dicotyledonous annual plant species were placed on top of the soil. Additional soil was subsequently placed over the seeds to level-fill the pot. A known amount of each test compound dissolved or suspended in an appropriate organic solvent was diluted with a 50:50 mix of acetone and water and applied to the surface of the soil. After treatment the plants were placed in a greenhouse where they received 0.64 cm of overhead irrigation. All subsequent watering consisted of a light overhead mist and/or subirrigation as needed for germination and growth. Tables 5 and 6 below relate to warm season plant species which were placed after pre-emergence treatment in a greenhouse with a 30/21° C. day/night temperature regime. Tables 7 and 8 below relates to cool season plant species placed after pre-emergence treatment in a greenhouse or growth chamber with an 18/13° C. day/night temperature regime.
(§4) Approximately 14 days after planting and treating, the plants were observed and herbicidal efficacy recorded as percent inhibition by comparison with untreated plants.
(§5) The plant species usually regarded as weeds which were utilized in the tests are identified in the tables below according to the following legend, in which “d” indicates a dicotyledonous species and “m” a monocotyledonous species. All monocotyledonous species included in the tests herein are grasses.

[10] = system: GALAP (catchweed bedstraw); assay: Pre-emergence herbicidal activity, cool season; format: in vivo, Galium aparine; conditions: lowest tested rate with 80% or greater inhibition; rates 300, 100, 30, 10 g/ha; about 14 days
Summary of the method: as §1

[11] = system: POLCO (wild buckwheat); assay: Pre-emergence herbicidal activity, cool season; format: in vivo, Polygonum convolvulus; conditions: lowest tested rate with 80% or greater inhibition; rates 300, 100, 30, 10 g/ha; about 14 days
Summary of the method: as §1

[12] = system: AVEFA (wild oat); assay: Pre-emergence herbicidal activity, cool season; format: in vivo, Avena fatua; conditions: GR80 = lowest tested rate (300, 100, 30, 10 g/ha) with 80% or greater inhibition; approx. 14 days after treating; 18/13° C.
Experimental: as §2, §3, §4, §5

[13] = system: SETVI (green foxtail); assay: Pre-emergence herbicidal activity, cool season; format: in vivo, Setaria viridis; conditions: GR80 = lowest tested rate (300, 100, 30, 10 g/ha) with 80% or greater inhibition; approx. 14 days after treating; 18/13° C.
Summary of the method: as §1

[14] = system: AGSST (creeping bentgrass); assay: Pre-emergence herbicidal activity, cool season; format: in vivo, Agrostis stolonifera; conditions: GR80 = lowest tested rate (300, 100, 30, 10 g/ha) with 80% or greater inhibition; approx. 14 days after treating; 18/13° C.
Summary of the method: as §1

[15] = system: SETFA (giant foxtail); assay: Pre-emergence herbicidal activity, warm season; format: in vivo, Setaria faberi; conditions: GR80 = lowest tested rate (300, 100, 30, 10 g/ha) with 80% or greater inhibition; approx. 14 days after treating; 30/21° C.
Summary of the method: as §1

[16] = system: SORHA (johnsongrass (seedling)); assay: Pre-emergence herbicidal activity, warm season; format: in vivo, Sorghum halepense; conditions: GR80 = lowest tested rate (300, 100, 30, 10 g/ha) with 80% or greater inhibition; approx. 14 days after treating; 30/21° C.
Summary of the method: as §1

[17] = system: BROTE (downy brome); assay: Pre-emergence herbicidal activity, cool season; format: in vivo, Bromus tectorum; conditions: GR80 = lowest tested rate (300, 100, 30, 10 g/ha) with 80% or greater inhibition; approx. 14 days after treating; 18/13° C.
Experimental: as §2, §3, §4, §5

[18] = system: PANDI (fall panicum); assay: Pre-emergence herbicidal activity, warm season; format: in vivo, Panicum dichotomiflorum; conditions: GR80 = lowest tested rate (300, 100, 30, 10 g/ha) with 80% or greater inhibition; approx. 14 days after treating; 30/21° C.
Experimental: as §2, §3, §4, §5

[19] = system: ECHCG (barnyardgrass); assay: Pre-emergence herbicidal activity, warm season; format: in vivo, Echinochloa crus-galli; conditions: GR80 = lowest tested rate (300, 100, 30, 10 g/ha) with 80% or greater inhibition; approx. 14 days after treating; 30/21° C.
Summary of the method: as §1

[20] = system: PANMI (wild proso millet); assay: Pre-emergence herbicidal activity, warm season; format: in vivo, Panicum miliaceum; conditions: GR80 = lowest tested rate (300, 100, 30, 10 g/ha) with 80% or greater inhibition; approx. 14 days after treating; 30/21° C.
Summary of the method: as §1

[21] = system: DIGSA (large crabgrass); assay: Pre-emergence herbicidal activity, warm season; format: in vivo, Digitaria sanguinalis; conditions: GR80 = lowest tested rate (300, 100, 30, 10 g/ha) with 80% or greater inhibition; approx. 14 days after treating; 30/21° C.
Summary of the method: as §1

[22] = system: ABUTH (velvetleaf); assay: Pre-emergence herbicidal activity, warm season; format: in vivo, Abutilon theophrasti; conditions: GR80 = lowest tested rate (300, 100, 30, 10 g/ha) with 80% or greater inhibition; approx. 14 days after treating; 30/21° C.
Experimental: as §2, §3, §4, §5

[23] = system: LOLMG (annual ryegrass); assay: Pre-emergence herbicidal activity, cool season; format: in vivo, Lolium multiflorum; conditions: GR80 = lowest tested rate (300, 100, 30, 10 g/ha) with 80% or greater inhibition; approx. 14 days after treating; 18/13° C.
Experimental: as §2, §3, §4, §5

[24] = system: ALOMY (blackgrass); assay: Pre-emergence herbicidal activity, cool season; format: in vivo, Alopecurus myosuroides; conditions: GR80 = lowest tested rate (300, 100, 30, 10 g/ha) with 80% or greater inhibition; approx. 14 days after treating; 18/13° C.
Summary of the method: as §1

[25] = system: SOLNI (black nightshade); assay: Pre-emergence herbicidal activity, warm season; format: in vivo, Solanum nigrum; conditions: GR80 = lowest tested rate (300, 100, 30, 10 g/ha) with 80% or greater inhibition; approx. 14 days after treating; 30/21° C.
Summary of the method: as §1

[26] = system: CIRAR (canada thistle (seedling)); assay: Pre-emergence herbicidal activity, warm season; format: in vivo, Cirsium arvense; conditions: GR80 = lowest tested rate (300, 100, 30, 10 g/ha) with 80% or greater inhibition; approx. 14 days after treating; 30/21° C.
Experimental: as §2, §3, §4, §5

[27] = system: AMARE (redroot pigweed); assay: Pre-emergence herbicidal activity, warm season; format: in vivo, Amaranthus retroflexus; conditions: GR80 = lowest tested rate (300, 100, 30, 10 g/ha) with 80% or greater inhibition; approx. 14 days after treating; 30/21° C.
Experimental: as §2, §3, §4, §5

Row | Compound | Pre-emergence activity GR80, VERPE [1] | Pre-emergence activity GR80, STEME [2] | Pre-emergence activity GR80, SASKR [3] | Pre-emergence activity (GR80) POROL [4] [g/ha] | Pre-emergence activity GR80, LAMPU [5] | Pre-emergence activity (GR80) BRAPP [6] [g/ha] | Pre-emergence activity (GR80) CHEAL [7] [g/ha] | Pre-emergence activity GR80, SINAR [8] | Pre-emergence activity GR80, GALAP [10] | Pre-emergence activity GR80, POLCO [11] | Pre-emergence activity (GR80) AVEFA [12] [g/ha] | Pre-emergence activity (GR80) SETVI [13] [g/ha] | Pre-emergence activity (GR80) AGSST [14] [g/ha] | Pre-emergence activity (GR80) SETFA [15] [g/ha] | Pre-emergence activity (GR80) SORHA [16] [g/ha] | Pre-emergence activity (GR80) ECHCG [19] [g/ha] | Pre-emergence activity (GR80) PANMI [20] [g/ha] | further results
1 | O=C(N1CCCC1)n1cnc(S(=O)(=O)C(F)F)n1 [Example 24] | [empty] | [empty] | [empty] | 100 | [empty] | 100 | 300 | [empty] | [empty] | [empty] |  |  |  |  |  |  |  | Pre-emergence activity (GR80) CONAR [9]: 300 g/ha
2 | CN(C)C(=O)n1cnc(S(=O)(=O)C(F)F)n1 [Example 26] | 300 g/ha | [empty] | 300 g/ha |  | 300 g/ha |  |  | [empty] | 300 g/ha | 300 g/ha | 300 | 300 | 30 |  |  |  |  | 
3 | COCCN(C)C(=O)n1cnc(S(=O)(=O)C(F)(F)Br)n1 [Example 40] | 100 g/ha | 300 g/ha | 300 g/ha |  | [empty] |  |  | 100 g/ha | [empty] | [empty] |  |  | 30 | 300 | 300 | 300 | 300 | Pre-emergence activity (GR80) BROTE [17]: 100 g/ha; Pre-emergence activity (GR80) PANDI [18]: 300 g/ha
4 | CCCN(CC)C(=O)n1cnc(S(=O)(=O)C(F)(F)C(F)F)n1 [Example 63] | 30 g/ha | 30 g/ha | 30 g/ha | 300 | 30 g/ha | 300 | 100 | 30 g/ha | 30 g/ha | 300 g/ha | 300 | 100 | 10 | 100 | 100 | 100 | 100 | Pre-emergence activity (GR80) DIGSA [21]: 300 g/ha; Pre-emergence activity (GR80) ABUTH [22]: 300 g/ha; Pre-emergence activity (GR80) LOLMG [23]: 100 g/ha; Pre-emergence activity (GR80) ALOMY [24]: 300 g/ha; Pre-emergence activity (GR80) SOLNI [25]: 300 g/ha; Pre-emergence activity (GR80) CIRAR [26]: 300 g/ha; Pre-emergence activity (GR80) AMARE [27]: 100 g/ha
